Series [1] has as its system L-rhamnose isomerase derived from Bacillus pallidus strain 14a (IPOD FERM AP-20172). Briefly: Substrate specificity (relative activity) of the purified enzyme, cysteine-carbazole method. The format is biochemical. The settings on record: activity against L-rhamnose assumed to be 100%; 50° C., 10 minutes, glycine-NaOH buffer pH 9.0. The protocol:
(§1) The method for measuring the substrate specificity (relative activity (%)) will be described.
(§2) A reaction solution having a composition of 50 μl of the purified enzyme solution, 50 μl of 0.05 M of each substrate sugar, 50 μl of 0.01 M manganese chloride and 0.05 M glycine-NaOH buffer (pH 9.0) was used. The reaction was carried out at a reaction temperature of 50° C. for 10 minutes. The produced ketose corresponding to the respective substrates was measured by the cysteine-carbazole method, and the activity that produces 1 μmol of the ketose per minute was measured for the respective substrates.

Series [2] deals with L-rhamnose isomerase produced by Pseudomonas stutzeri LL172 (IPOD FERM BP-08593). The series is described as above. Format: biochemical. To be noted: activity against L-rhamnose assumed to be 100%; 50° C., 10 minutes, glycine-NaOH buffer pH 9.0. The protocol: as §1, §2
Series [3] can be described thus: Solubility of D-psicose and D-allose in water and alcohols. Format: physicochemical. An excerpt:
The principle of the collection by separation will be briefly described. […] D-psicose has a solubility of about 10% in methanol and ethanol, however, D-allose is insoluble in either alcohol. The temperature has an influence on the solubility. The solubility of D-psicose in both alcohols is increased at a high temperature. Further, when the alcohol concentration is high, D-allose is likely to be crystallized. It is a separation technique utilizing the above physical properties. It is a production method of high-purity D-allose in which by allowing an alcohol (ethanol and/or ethanol) to act on, D-allose which is insoluble in the alcohol (ethanol and/or ethanol) is crystallized and the crystal of D-allose is separated.

Series [4] has as its target T1, L-rhamnose isomerase produced by E. coli (Escherichia coli, UniProt P32170).
T1 sequence (P32170 1-419): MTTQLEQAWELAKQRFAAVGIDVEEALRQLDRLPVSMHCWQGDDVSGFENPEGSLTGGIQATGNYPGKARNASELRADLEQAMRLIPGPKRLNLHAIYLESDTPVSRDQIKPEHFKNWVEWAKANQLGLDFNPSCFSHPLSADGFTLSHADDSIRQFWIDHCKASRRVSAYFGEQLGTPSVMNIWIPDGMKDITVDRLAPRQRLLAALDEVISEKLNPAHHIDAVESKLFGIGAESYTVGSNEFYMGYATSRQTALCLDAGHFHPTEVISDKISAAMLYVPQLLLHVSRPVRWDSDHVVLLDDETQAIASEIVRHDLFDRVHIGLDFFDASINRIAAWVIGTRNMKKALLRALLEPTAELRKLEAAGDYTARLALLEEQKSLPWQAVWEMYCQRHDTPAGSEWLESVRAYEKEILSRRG
The settings on record: cited from earlier work.

The subject of series [5] is L-rhamnose isomerase produced by Pseudomonas stutzeri LL172. The settings on record: cited from earlier work; for effect of chelating agent on activity: coexisting during the measurement of the activity.
Series [6] concerns L-rhamnose isomerase derived from Bacillus pallidus strain 14a. The series can be described thus: Effect of metal ion on enzyme activity. Format: biochemical. To be noted: 1 mM cobalt ion.
A short description of series [7]: Optimal pH and working pH of L-rhamnose isomerase. Format: biochemical. To be noted: 50° C., L-rhamnose as substrate, purified enzyme. The protocol:
The optimal pH of L-rhamnose isomerase derived from Bacillus pallidus was examined. With the use of the purified enzyme, a reaction was carried out at 50° C. using L-rhamnose as a substrate at each pH value.
The optimal pH of L-rhamnose isomerase derived from P. stutzeri was examined. […] With regard to the activity thereof, the optimal pH was present in a range of from pH 7 to around pH 9.

Series [8] is described as follows: Optimal and working temperature of L-rhamnose isomerase. The format is biochemical. To be noted: reaction time of 10 minutes.
The nature of series [9]: Temperature stability of L-rhamnose isomerase. To be noted: heat treatment condition of 1 hour. Format: physicochemical.
For series [10] the following is noted: known properties (Non-patent document 1 / Patent document 1); cited from earlier work.
The conditions of series [11]: reaction time 10 minutes; cited from earlier work.
For series [12] the following is noted: cited from earlier work.

What is called remaining activity is what remains of the control signal, in per cent.

Where “and” joins values, the source holds several entries; their conditions need not be identical. Identical values can stand only once. Like-named read-outs stand apart in the source and are kept apart here.

As to `O=C[C@H](O)[C@H](O)[C@H](O)[C@H](O)CO` [D-allose], the “Enzyme derived from B. Pallidus (relative activity %)” value in series [1] was 5.5% and 5.6%. Moreover, in series [2], the “Enzyme derived from P stutzeri (relative activity %)” value was 7.2%. Further, in series [3], the “solubility in methanol and ethanol” value was “insoluble”; the solubility in water result is given as “readily soluble”. The “activity between D-psicose and D-allose” value in [4] was “hardly exhibits an activity”.
Turning to `O=C[C@@H](O)[C@@H](O)[C@H](O)CO` [D-lyxose], the “Enzyme derived from B. Pallidus (relative activity %)” value in series [1] worked out at 0.14%. Further, the “Enzyme derived from P stutzeri (relative activity %)” value in series [2] came to 0.006%.
Regarding `O=C(CO)[C@H](O)[C@H](O)[C@H](O)CO` [D-psicose], the “solubility in methanol and ethanol” value in series [3] (methanol and ethanol) is given as “about 10%”. Also, in [3] (water), the solubility in water entry is on record as “readily soluble”. Besides, the “activity between D-psicose and D-allose” value in series [4] was “hardly exhibits an activity”.
As to `O=C(O)CN(CCN(CC(=O)O)CC(=O)O)CC(=O)O` [EDTA], the “effect of chelating agent on activity” value in series [5] was “hardly inhibited”.
For `O=C(O)CN(CCOCCOCCN(CC(=O)O)CC(=O)O)CC(=O)O` [EGTA], the “effect of chelating agent on activity” value in [5] is “hardly inhibited”.
Turning to `O=C[C@H](O)[C@H](O)[C@@H](O)CO` [L-lyxose], the “Enzyme derived from B. Pallidus (relative activity %)” value in series [1] was determined as 23.9%. Also, the “Enzyme derived from P stutzeri (relative activity %)” value in [2] is 43.9% and 43.7%.
For `O=C[C@H](O)[C@H](O)[C@@H](O)[C@@H](O)CO` [L-mannose], the “Enzyme derived from B. Pallidus (relative activity %)” value in series [1] amounted to 11%. Also, the “Enzyme derived from P stutzeri (relative activity %)” value in series [2] is listed as 33.4%.
As for `C[C@H](O)[C@H](O)[C@@H](O)[C@@H](O)C=O` [L-rhamnose], the “Enzyme derived from B. Pallidus (relative activity %)” value in series [1] is reported as 100%. Further, the “Enzyme derived from P stutzeri (relative activity %)” value in series [2] amounted to 100%.
`[Co+2]` [cobalt ion]: the “activity inhibited by metal ion” value in series [6] and in series [5] (1 mM cobalt ion) was “About 30%” throughout.

B1: L-rhamnose isomerase derived from Bacillus pallidus: thermotolerant L-rhamnose isomerase derived from Bacillus pallidus strain 14a (FERM AP-20172), amino acid sequence SEQ ID NO: 2 (protein, listed as Bacillus pallidus)
chain: MVIKESFEIARQVYEKWGINIEEVLENLQQASISIHCWQGDDVKGFEADASELSGGIDVTGNYPGKARNAEELRQDLEKALSLIPGKHRVNLHAIYAETNGEKVERDQLEPKHFENWVNWAKKIGIGLDFNPTLFSHEKAADGLTLSHPDPGIREFWINHCIRSRKIGEYFGKELGTPCLTNIWIPDGYKDIPSDRLTPRKRLKESLDKIFSVEINEKYNLDAVESKLFGIGSESFVVGSHEFYLGYALQNNKIYLLDTGHFHPTETVSNKISSILLYSDRLALHVSRPVRWDSDHVVILDDELREIALEIVRNDALHKVLIGLDFFDASINRLAAWVIGTRNMIKALLYAMLMPHEYLKQLQEKGNFTERLAVMEEFKTYPFGAIWDYYCEKMNVPVREEWLKEIQKYEEEVLTKRQ
For the molecule B1, the “pH at which the highest activity was exhibited” value in series [7] was determined as 6. Also, in [8], the “optimal temperature (highest enzymatic activity)” value worked out at 80 °C and the “optimal temperature higher compared with the L-rhamnose isomerase of LL172” value amounted to 20 °C. For the same molecule, the “optimal temperature higher compared with the L-rhamnose isomerase of LL172” value in series [8] (listed as thermotolerant L-rhamnose isomerase) is “about 20 °C”. Besides, in series [9], the “stable temperature higher compared with the L-rhamnose isomerase of LL172” value turned out to be 10 °C and the “temperature stability (stable up to)” value was “up to 50 °C”.

B2: L-rhamnose isomerase produced by Pseudomonas stutzeri LL172: known L-rhamnose isomerase derived from Pseudomonas stutzeri LL172 (FERM BP-08593), amino acid sequence SEQ ID NO: 4 (protein, listed as Pseudomonas stutzeri)
chain: MAEFRIAQDVVARENDRRASALKEDYEALGANLARRGVDIEAVTAKVEKFFVAVPSWGVGTGGTRFARFPGTGEPRGIFDKLDDCAVIQQLTRATPNVSLHIPWDKADPKELKARGDALGLGFDAMNSNTFSDAPGQAHSYKYGSLSHTDAATRAQAVEHNLECIEIGKAIGSKALTVWIGDGSNFPGQSNFTRAFERYLSAMAEIYKGLPDDWKLFSEHKMYEPAFYSTVVQDWGTNYLIAQTLGPKAQCLVDLGHHAPNTNIEMIVARLIQFGKLGGFHFNDSKYGDDDLDAGAIEPYRLFLVFNELVDAEARGVKGFHPAHMIDQSHNVTDPIESLINSANEIRRAYAQALLVDRAALSGYQEDNDALMATETLKRAYRTDVEPILAEARRRTGGAVDPVATYRASGYRARVAAERPASVAGGGGII
In the case of B2, the “pH at which the highest activity was exhibited” value in [7] is 9. Besides, the “optimal temperature (highest enzymatic activity)” value in series [8] worked out at 60 °C. For the same molecule, in [9], the “temperature stability (stable up to)” value stood at 40 °C. Further, the “optimal pH” value in [10] is 9.0. Besides, the “temperature of highest activity” value in [11] was 60 °C. In series [12] (50° C. for 10 minutes), the remaining activity is listed as not below 90%. Moreover, the “temperature stability (stable at)” value in [12] (10 minutes) was 40 °C.

The record behind these values is US20090004694A1, “Sequence of Thermotolerant L-Rhamnose Isomerase Gene and Use of the Same” (National University Corporation Kagawa University, priority 2004, published 2009).
